{"source": "patent US9623004B2", "about": "“Administration of a therapeutic amount of genistein to mitigate erectile dysfunction resulting from radiation therapy for prostate cancer only throughout a defined administration period commencing shortly before and concluding after radiation therapy” (Humanetics Corporation, priority 2013, dated 2017)", "origin": "cited, not measured here", "key": {"[1]": {"assay": "not given", "remark": "listed apart in the source"}}}
{"smiles": "O=c1c(-c2ccc(O)cc2)coc2cc(O)cc(O)c12", "note": "[Genistein, 5,7-dihydroxy-3-(4-hydroxyphenyl)-chromen-4-one]", "values": [{"measurement": "solubility in water", "value": "virtually insoluble in water"}, {"measurement": "beneficial effects in other clinical trials", "setting": "[1]", "value": "no beneficial effects"}]}
